Test results from ChEMBL document CHEMBL1201862, “PubChem BioAssay data set” (2004).
The source made the active and inactive calls. For most assays here, no stated cut-off is given here; in the data, actives have a measured EC50 and inactives only a lower limit.

Legend:
[1] = Trypanosoma cruzi growth suppression in host cells – NIH3T3 host cells, beta-gal luminescence, confirmation (AID 2044); format: functional, cell-based;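 further: intracellular parasites grown in NIH/3T3 mouse fibroblasts as host cells; luminescent beta-galactosidase reporter signal from transgenic T. cruzi replicating inside host cells; inhibitors lower the luminescence signal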
[2] = NIH3T3 cell viability loss – ATP luminescence, mouse fibroblasts, counter-screen, dose response (AID 2010); format: functional, cell-based;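 further: cells exposed to compound for about 90 hours before reading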
[3] = target: Cytochrome P450 2D6 (Homo sapiens, UniProt P10635);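 further: CYP2D6 member of a cytochrome P450 panel assay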
Sequence of Cytochrome P450 2D6 (P10635 whole entry): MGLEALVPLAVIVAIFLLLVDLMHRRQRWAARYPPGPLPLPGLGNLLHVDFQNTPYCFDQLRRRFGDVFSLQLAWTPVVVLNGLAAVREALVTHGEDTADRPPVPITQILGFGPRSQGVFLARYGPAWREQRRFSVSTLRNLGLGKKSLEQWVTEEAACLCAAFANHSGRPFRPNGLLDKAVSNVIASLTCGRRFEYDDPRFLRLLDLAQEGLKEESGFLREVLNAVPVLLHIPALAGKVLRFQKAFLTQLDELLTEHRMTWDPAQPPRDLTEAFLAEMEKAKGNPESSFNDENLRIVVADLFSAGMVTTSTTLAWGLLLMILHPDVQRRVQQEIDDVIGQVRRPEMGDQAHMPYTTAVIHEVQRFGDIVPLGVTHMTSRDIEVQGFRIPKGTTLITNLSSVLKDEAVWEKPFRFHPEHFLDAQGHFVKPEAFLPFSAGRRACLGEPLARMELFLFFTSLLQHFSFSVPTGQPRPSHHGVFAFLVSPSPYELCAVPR

[4] = test system: Streptococcus sp. 'group A'; test: Streptococcus pyogenes SK(-)GAS viability under kanamycin – luminescence, BacTiterGlo, confirmation, counter-screen for streptokinase expression inhibitor project, dose response (AID 1900); format: functional, organism-based
[5] = test system: Streptococcus; test: GAS UMAA2166 growth inhibition – luminescence, BacTiterGlo, counter-screen for streptokinase expression inhibitor project, dose response (AID 1915); format: functional, organism-based;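 further: potency for reduction of bacterial viability or growth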
[6] = target: Cytochrome P450 2C9 (Homo sapiens, UniProt P11712)
Sequence of Cytochrome P450 2C9 (P11712 whole entry): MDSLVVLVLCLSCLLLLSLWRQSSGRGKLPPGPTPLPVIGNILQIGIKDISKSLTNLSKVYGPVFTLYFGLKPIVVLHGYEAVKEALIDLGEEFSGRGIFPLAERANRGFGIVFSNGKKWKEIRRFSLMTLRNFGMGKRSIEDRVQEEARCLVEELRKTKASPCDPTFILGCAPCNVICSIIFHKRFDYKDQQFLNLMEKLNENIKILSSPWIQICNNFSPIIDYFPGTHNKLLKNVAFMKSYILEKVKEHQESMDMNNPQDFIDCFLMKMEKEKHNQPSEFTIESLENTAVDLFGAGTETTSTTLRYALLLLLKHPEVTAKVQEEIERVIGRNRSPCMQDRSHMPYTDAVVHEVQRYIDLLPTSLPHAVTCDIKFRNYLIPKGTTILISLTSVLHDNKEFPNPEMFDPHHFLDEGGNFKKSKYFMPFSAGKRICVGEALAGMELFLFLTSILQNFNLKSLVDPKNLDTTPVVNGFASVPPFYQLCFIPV

| Compound | EC50 [1] | EC50 [2] | AC50 [3] | other results |
| --- | --- | --- | --- | --- |
| CC1CCC(C(C)C)C(OC(=O)C[n+]2cc(-c3ccc(Cl)cc3)n3c2CCC3)C1 (stereo not drawn) | 0.144 µM (active) | > 60 µM (not active) | – | – |
| CNc1cc(-c2ccccc2C)ncn1 | – | – | 39.8 µM (inconclusive) | – |
| CN1c2ccc([N+](=O)[O-])cc2CC2(C(=O)NC(=O)N(c3ccccc3)C2=O)C1c1ccccc1 (stereo not drawn) | 1.94 µM (active) | > 60 µM (not active) | – | – |
| CC(C)c1csc(CN2CCC(CO)(Cc3ccccc3)CC2)n1 | 0.891 µM (active) | > 60 µM (not active) | – | – |
| Cc1ccc(CSCC(=O)N2CCN(c3ccc(F)cc3)CC2)cc1 | 2.18 µM (active) | > 60 µM (not active) | – | – |
| COC(=O)c1cc(-c2ccc(Br)cc2)c2c(=O)[nH]c(=O)n(C)c2n1 | – | – | – | EC50 [4]: 2.45 µM (active); EC50 [5]: 5.63 µM (active) |
| COc1ccccc1CNc1ccc2c(c1)CCC2 | 2.21 µM (active) | > 60 µM (not active) | – | – |
| Cc1ccc(/C(=N\O)c2oc3c(C)c4oc(=O)cc(C)c4cc3c2C)cc1 | 1.23 µM (active) | > 60 µM (not active) | – | – |
| COc1ccc([C@@H](Nc2ncccn2)c2cc3c(cc2O)OCO3)cc1 | – | – | 6.31 µM (inconclusive) | – |
| Cc1cccc(C)c1NC(=O)C(NC=O)c1ccccc1Cl (stereo not drawn) | – | – | – | AC50 [6]: 12.6 µM (inconclusive) |
| CC(C)CN1CCC2(CC1)CCN(C(=O)Oc1ccccc1)CC2 | – | – | 20 µM (inconclusive) | – |
| CCCOc1ccc(C(=O)NC(=S)N2CCN(c3cc4c(cc3F)c(=O)c(C(=O)O)cn4CC)CC2)cc1 | – | – | – | EC50 [4]: 4.62 µM (active); EC50 [5]: 6.47 µM (active) |
| CCn1cc([N+](=O)[O-])c(C(=O)N2N=C(c3ccc4ccccc4c3)CC2c2cc(Br)ccc2O)n1 (stereo not drawn) | 2.19 µM (active) | > 60 µM (inconclusive) | – | – |
| CN(C)c1ccc(C2SCCN2C(=O)c2ccc([N+](=O)[O-])cc2)cc1 (stereo not drawn) | 0.874 µM (active) | > 30 µM (not active) | – | – |
| C/C(=N/NS(=O)(=O)c1ccc(C)cc1)c1cccc(NC(=O)c2cccc(Cl)c2)c1 | – | – | 4.47 µM (inconclusive) | – |
| COc1ccc(C(=O)/C=C2/c3ccccc3CC(C)(C)N2C)cc1 | – | – | – | AC50 [6]: 20 µM (inconclusive) |

| Compound | EC50 [1] | EC50 [2] | AC50 [3] | other results |
| --- | --- | --- | --- | --- |
| O=C(CC(=O)c1ccncc1)c1ccccc1 | – | – | 1.58 µM (inconclusive) | AC50 [6]: 2 µM (inconclusive) |
| O=c1c([N+](=O)[O-])cc(C(F)(F)F)cn1Cc1c(Cl)cccc1Cl | – | – | 25.1 µM (inconclusive) | AC50 [6]: 22.4 µM (inconclusive) |
| COC(=O)c1sc(N/N=C/c2ccc(C(C)C)cc2)nc1C | 2.06 µM (active) | > 60 µM (not active) | – | – |
| O=S(=O)(N/N=C\C=C\c1ccccc1)c1ccc(Br)cc1 | – | – | 22.4 µM (inconclusive) | – |
| CCOc1ccc(-n2c(C)cc(/C=N/N(C)C)c2C)cc1 | 0.843 µM (active) | > 30 µM (not active) | – | – |
| Cc1ccc2ncc([N+](=O)[O-])n2c1 | – | – | – | AC50 [6]: 0.708 µM (inconclusive) |
| O=C(CCCCn1c(=O)c2ccccc2n(CC(=O)NC2CCCC2)c1=O)NC1CCCC1 | – | – | 14.1 µM (inconclusive) | – |
| COc1cnc(-c2ccccc2)nc1Oc1cccc(C)c1 | – | – | – | AC50 [6]: 39.8 µM (inconclusive) |
| Cc1ccc(Sc2ccc(CN3CCCC3)cc2[N+](=O)[O-])cc1 | 0.206 µM (active) | > 60 µM (not active) | – | – |
| Cc1sc(NC(=O)Cc2ccc3c(c2)OCO3)nc1-c1ccc2c(c1)CCN2C(=O)c1ccccc1F | 1.69 µM (active) | > 60 µM (not active) | – | – |
| COc1cc(C=O)ccc1OCCOCCOc1ccccc1Cl | – | – | 20 µM (inconclusive) | – |
| NC(=O)C1(NC(=O)[C@@H]2CC3(CC(c4cccc(NC(=O)c5cc([N+](=O)[O-])cc([N+](=O)[O-])c5)c4)=NO3)CN2C(=O)c2ccccc2)CC1 (stereo partly drawn) | – | – | – | AC50 [6]: 11.2 µM (inconclusive) |
| COc1ccc(C(=O)N2CCC3(CCN(Cc4ccccc4OC)CC3)CC2)cc1 | – | – | 12.6 µM (inconclusive) | – |
| O=C(Nc1cccc(F)c1)N1CC2(CCNCC2)C1 | – | – | 7.94 µM (inconclusive) | – |
| CCCCCCCNC(=O)C1(CC2CC(c3cccc(Br)c3)=NO2)CCN(C(=O)c2ccccc2)CC1 (stereo not drawn) | 2.62 µM (active) | > 60 µM (not active) | – | – |
